Data from PMC9915011, “Polymyxin B Conjugates with Bio-Inspired Synthetic Polymers of Different Nature” (International Journal of Molecular Sciences, 2023).
Values after ≈ are worked out from the molar mass of the structure shown.

Legend:
S. aureus = settings: cited from earlier work
Description: A series of conjugates of loracarbef (cephalosporins) and ciprofloxacin (fluroquinolones) with sideromycins (siderophores) was synthesized and tested against a panel of ESKAPEE bacteria (Enterococcus faecium, S. aureus, Klebsiella pneumoniae, A. baumannii, P. aeruginosa, Enterobacter aerogenes, E. coli).

[1] = test system: Acinetobacter baumannii (Ab ATCC 19606); settings: cited from earlier work
P. aeruginosa = settings: free colistin; cited from earlier work
Method: According to the published works, many factors affect the MIC for conjugates linked with amide bonds. For example, Dubashynskaya et al. observed the dependence of MIC on the degree of substitution (DS). In particular, when the DS was 8%, the MIC against P. aeruginosa for hyaluronan–colistin conjugates was 1 µg/mL, the same as for free colistin. At the same time, a decrease in DS to 5 and 3% was accompanied with the MIC increase to 4 and more than 8 µg/mL, respectively.

[2] = test system: P. aeruginosa (ATCC 27853); experiment: MIC by microdilution in Müller–Hinton broth; format: cell-based, Pseudomonas aeruginosa; settings: 18 h, OD 630 nm, n = 9
Description: P. aeruginosa (ATCC 27853) from Museum of Microbiological Cultures of State Research Institute of Highly Pure Biopreparations FMBA (St. Petersburg, Russia) and Müller–Hinton Broth (HiMedia, Mumbai, India) were used to study the antibacterial effect of PMX B and its conjugates. HEK 293T cells were purchased from the cell culture collection of the Institute of Cytology of Russian Academy of Sciences (St. Petersburg, Russia).
The minimum inhibitory concentration (MIC) of polymyxin B in the conjugates was determined by the microdilution method in Müller–Hinton broth. Before the samples were tested against P. Aeruginosa, they were checked for microbiological purity to exclude possible contamination. In all cases, the absence of microbial growth on Luria–Bertani agar was detected. […] The plate was incubated for 18 h at 37 °C and then the optical density in the wells was measured at 630 nm using a microplate reader (ELx808™ Absorbance Microplate Reader, BioTek-Agilent, Santa Clara, CA, USA). Relative bacterial growth (%) was calculated from the data of OD measured for samples and control according to the equation: (2) Relative bactearial growth=OD630 sample at Cx−OD630 blank/OD630 positive control−OD630 blank×100% where Cx is a certain concentration of the sample. […]

HEK 293T cells = experiment: MTT cytotoxicity in HEK 293T cells, 48 h; format: cell-based, human; settings: free polymers and free PMX B, tested 4 to 1000 µg/mL, mean ± SD, n = 4
Method: The cell viability was determined after 48 h using the MTT assay (Figure 6).
HEK 293T cells were cultivated in DMEM/F12 medium with 10% FCS, 2 mM glutamine, and 1% gentamicin (Sigma-Aldrich, Darmstadt, Germany). In 96-well plates, 3.5 × 10^3 cells in 100 µL were seeded per well and left for adhesion at 37 °C for 24 in a humidified 5% CO2 atmosphere. After that, the medium in the wells was replaced with 200 µL of solution containing the test samples at the specified concentrations (n = 4) and left for incubation under the same conditions for 48 h. Then, the medium was removed and 100 µL of MTT reagent solution (5 mg/mL stock solution) was added to each well. The plates were incubated in the CO2 incubator for 3 h at 37 °C. Finally, the solution in the well was replaced with 50 µL of DMSO to dissolve formazan crystals and the optical density in each well was measured at 570 nm using fluorescent plate reader (Fluoroscan Ascent, Thermo Fisher Scientific Inc., Waltham, MA, USA). The wavelength of 690 nm was used to measure the background absorbance. The data obtained were normalized as a percentage of the control. Free polymers and PMX B were tested at concentrations ranging from 4 to 1000 µg/mL.

Question: Which MIC (S. aureus) does the source give for `N[C@@H](C(=O)N[C@@H]1C(=O)N2C(C(=O)O)=C(Cl)CC[C@H]12)c1ccccc1` [loracarbef] here?
Answer: 1 µM (≈ 0.35 µg/mL)

Question: Which MIC [1] does the source give for colistin here?
Answer: 1 µg/mL

Question: What about the MIC (P. aeruginosa) of the same molecule?
Answer: 1 µg/mL

Question: For `CC(=O)N(O)CCCCCNC(=O)CCC(=O)N(O)CCCCCNC(=O)CCC(=O)N(O)CCCCCN` [DFOA, deferoxamine], which antimicrobial activity ([2]; P. aeruginosa, concentration range of 0.25–64 μg/mL) is on record?
Answer: neither polymers nor DFOA exhibited antimicrobial activity

Question: For polymyxin B [PMX B], which MIC ([2]; P. aeruginosa ATCC 27853, microdilution, Müller–Hinton broth, 1 × 10^7 CFU/mL, 37 °C, MIC of polymyxin B in the conjugates) is on record?
Answer: 4 µg/mL

Question: What about the IC50 (HEK 293T cells) of the same molecule?
Answer: 130 ± 14 µg/mL
